The numbers were not newly measured in PMC7584476, “Safety and efficacy of BAY1436032 in IDH1-mutant AML: phase I study results” (Leukemia, 2020), which cites them from elsewhere.

Read-outs that look alike come from different tables or passages of the source.

The subject of one data set is primary AML samples. Conditions: cited from earlier work.
The next data set deals with mIDH1 AML. Also noted: method as in PMID 29860938. Conditions: cited from earlier work.

Regarding `CC(C)(O)CNc1nc(Nc2ccnc(C(F)(F)F)c2)nc(-c2cccc(C(F)(F)F)n2)n1` [enasidenib], the “Number of colony-forming cells” value in the data set on primary AML samples was “increased”.

Consider `N#Cc1ccnc(N2C(=O)CC[C@H]2C(=O)N(c2cncc(F)c2)[C@H](C(=O)NC2CC(F)(F)C2)c2ccccc2Cl)c1` [ivosidenib], for which the “Number of colony-forming cells” value with primary AML samples (ref MH, unpublished) is “increased”. In the data set with mIDH1 AML, the Half-life was 72 to 138 h, the “≥grade 3 TEAE IDH DS” value is 4% and the “≥grade 3 TEAE QT prolongation” value is 8%. In addition, the Median overall survival with mIDH1 AML (similar populations, 95% CI 6.7–10.2) was 8.8 months.
